These results are taken from ChEMBL document CHEMBL1201862, “PubChem BioAssay data set” (2004).

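96-well plates; 48 h exposure; 5 concentrations. Endpoints by linear interpolation between flanking doses. Not reached: highest tested concentration assigned. GI50 is the concentration that inhibits growth by half.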 Activity calls are given as the source filed them. Rule as the data show it: active = GI50 up to about 1.1 µM and inactive = higher. Bounds are passed on as bounds.

Test systems include A549; HCT-15; SN12C; SR; A498; HT-29; SW-620; IGROV-1; U-251; KM12; SK-MEL-5; Malme-3M; 786-0; NCI-H226; SF-295; OVCAR-4; SNB-19; MDA-MB-231; RXF 393; HOP-62.
Experiment in all cases: NCI-60 cell line screen, 48 h

As for `CCOP(=O)(OCC)/C(C#N)=C/c1cccn1N(C)C`, the GI50 is > 100 µM (inactive) in the test on A549; greater than 100 µM in the test on HCT-15; > 100 µM (inactive) in the test on SN12C; > 100 µM (inactive) in the test on SR; > 100 µM (inactive) in the test on A498; > 100 µM (inactive) in the test with HT-29. The GI50 in the test on SW-620 is > 100 µM (inactive); in the test with IGROV-1, > 100 µM (inactive); with U-251, > 100 µM (inactive); in the test on KM12, > 100 µM (inactive); with SK-MEL-5, 51.6 µM (inactive); in the test with Malme-3M, > 100 µM (inactive). Further, the GI50 in the test on 786-0, with NCI-H226, in the test with SF-295, in the test on OVCAR-4, with SNB-19 and in the test on MDA-MB-231 was > 100 µM (inactive) throughout. Also, the GI50 in the test with RXF 393 and in the test on HOP-62 was > 100 µM (inactive) throughout.

For the molecule `CC1(C)N(OC2CCCCO2)C(c2ccccc2)C(c2ccccc2)=[N+]1[O-]` (centres undefined), the GI50 in the test on A549 was 58.6 µM (inactive); with HCT-15 it was greater than 100 µM; in the test on SN12C, > 100 µM (inactive); with SR it was 27 µM (inactive); in the test on A498, > 100 µM (inactive); in the test with HT-29, > 100 µM (inactive). The GI50 in the test with SW-620 is > 100 µM (inactive); in the test on IGROV-1 it was > 100 µM (inactive); in the test on U-251 it was > 100 µM (inactive); in the test with KM12, 93.5 µM (inactive); in the test with SK-MEL-5 it was 52.1 µM (inactive); in the test on Malme-3M it was > 100 µM (inactive). For the same molecule, the GI50 with 786-0 was > 100 µM (inactive); in the test with NCI-H226 it was > 100 µM (inactive); with SF-295, 41 µM (inactive); in the test on OVCAR-4 it was > 100 µM (inactive); in the test on SNB-19, > 100 µM (inactive); in the test with MDA-MB-231, > 100 µM (inactive). Also, the GI50 was 47.5 µM (inactive) in the test on RXF 393 and > 100 µM (inactive) in the test with HOP-62.

Consider `O=c1ssc2c1Nc1c(ssc1=O)S2`, for which the GI50 with A549 was 19.2 µM (inactive); in the test on HCT-15, 11.4 µM; in the test on SN12C, 14.4 µM (inactive); in the test on SR it was 1.96 µM (inactive); in the test with A498 it was 11.9 µM (inactive); with HT-29, 24.3 µM (inactive). Moreover, the GI50 is 8.61 µM (inactive) in the test with SW-620; 13.2 µM (inactive) in the test with IGROV-1; 16.4 µM (inactive) in the test with U-251; 14.4 µM (inactive) in the test on KM12; 15.7 µM (inactive) in the test with SK-MEL-5; 5.9 µM (inactive) in the test with Malme-3M. The GI50 in the test on 786-0 was 3.87 µM (inactive); with NCI-H226, 23.4 µM (inactive); with SF-295, 27.7 µM (inactive); in the test with OVCAR-4 it was 14.4 µM (inactive); with SNB-19, 17.9 µM (inactive); with MDA-MB-231, 23.4 µM (inactive). The GI50 with RXF 393 was 4.42 µM (inactive); in the test with HOP-62, 18.5 µM (inactive).

For the molecule `C=CCN1C(=O)/C(=C/c2ccc(OC)cc2)N=C1SC/C=C/C`, the GI50 in the test with A549 was 18.9 µM (inactive); in the test with HCT-15, 24.2 µM; in the test with SN12C it was 19.5 µM (inactive); in the test on SR, 17.3 µM (inactive); with A498, 23.9 µM (inactive); in the test on HT-29 it was 33.7 µM (inactive). The GI50 was 35.4 µM (inactive) in the test on SW-620; > 100 µM (inactive) in the test on IGROV-1; 35.1 µM (inactive) in the test on U-251; 28.8 µM (inactive) in the test on KM12; 18.3 µM (inactive) in the test on SK-MEL-5; 34.8 µM (inactive) in the test on Malme-3M. The GI50 in the test on 786-0 is 34.7 µM (inactive); with NCI-H226, 53.7 µM (inactive); in the test on SF-295, 41.3 µM (inactive); with OVCAR-4, 37.7 µM (inactive); in the test with SNB-19, 34.4 µM (inactive); in the test with MDA-MB-231 it was 57.8 µM (inactive). In addition, the GI50 in the test on RXF 393 is 16.6 µM (inactive); in the test on HOP-62, > 100 µM (inactive).

As to `CC(C)(C)C(=O)CC1(O)C=C(O)C(O)(CC(=O)C(C)(C)C)O1` (centres undefined), the GI50 in the test on A549 is 61.7 µM (inactive); in the test with HCT-15 it was 8.77 µM; in the test on SN12C, 14.7 µM (inactive); with SR, 4.55 µM (inactive); in the test with A498, > 100 µM (inactive); in the test on HT-29, 18.7 µM (inactive). The GI50 was 7.13 µM (inactive) in the test on IGROV-1; 36.8 µM (inactive) in the test on U-251; 63.5 µM (inactive) in the test with KM12; 21.2 µM (inactive) in the test on SK-MEL-5; 86.9 µM (inactive) in the test with Malme-3M; 4.86 µM (inactive) in the test with 786-0. Besides, the GI50 in the test with NCI-H226 is 18.3 µM (inactive); in the test with SF-295 it was 48.5 µM (inactive); in the test on OVCAR-4 it was 12.8 µM (inactive); in the test with SNB-19, 36.8 µM (inactive); in the test with MDA-MB-231 it was 55 µM (inactive); in the test with RXF 393 it was 1.84 µM (inactive). In addition, the GI50 in the test on HOP-62 is 15.5 µM (inactive).

Regarding `O=C1C[C@@H](c2ccccc2)NCCCCN(O)CCCN1`, the GI50 in the test with A549 is > 100 µM (inactive); with HCT-15, greater than 100 µM; in the test with SN12C, > 100 µM (inactive); in the test on SR, > 10 µM (inactive); in the test with A498, > 100 µM (inactive); in the test with HT-29, > 100 µM (inactive). The GI50 with SW-620, with IGROV-1, in the test on U-251, in the test on KM12, with SK-MEL-5 and in the test with Malme-3M was > 100 µM (inactive) in each case. The GI50 was > 100 µM (inactive) with 786-0; > 100 µM (inactive) in the test with NCI-H226; > 100 µM (inactive) with SF-295; 88.5 µM (inactive) with OVCAR-4; 28.4 µM (inactive) with SNB-19; > 100 µM (inactive) in the test with MDA-MB-231. Moreover, the GI50 with RXF 393 and in the test with HOP-62 was > 100 µM (inactive) throughout.

On to `Nc1cc2ncnc(Nc3cccc(Br)c3)c2cn1`, for which the GI50 is 35.9 µM (inactive) in the test on A549; 12.3 µM in the test on HCT-15; 17.6 µM (inactive) in the test on SN12C; > 100 µM (inactive) in the test on SR; 3.61 µM (inactive) in the test on A498; 31.4 µM (inactive) in the test on HT-29. For the same molecule, the GI50 was > 100 µM (inactive) in the test on SW-620; > 10 µM (inactive) in the test with IGROV-1; 18.7 µM (inactive) with U-251; 22.2 µM (inactive) in the test on KM12; 42.7 µM (inactive) in the test with SK-MEL-5; > 100 µM (inactive) with Malme-3M. Besides, the GI50 in the test with 786-0 was 19.5 µM (inactive); in the test on NCI-H226, 23.8 µM (inactive); in the test with SF-295 it was 26.9 µM (inactive); in the test on OVCAR-4 it was 39.9 µM (inactive); with SNB-19, 67.5 µM (inactive); in the test on MDA-MB-231 it was 45.2 µM (inactive). For the same molecule, the GI50 with RXF 393 is 41.5 µM (inactive); in the test with HOP-62, 29.4 µM (inactive).
